The source of these data is patent US20250223300A1, “MACROCYCLIC COMPOUND AND PHARMACEUTICAL COMPOSITION AND USE THEREOF” (BETTA PHARMACEUTICALS CO., LTD, priority 2022, published 2025).

Series [1] has as its target Ba/F3 cells overexpressing EGFR Del19/T790M/C797S (Homo sapiens, UniProt P00533, T790M/C797S, cells depend on it, form not given). The series is described as follows: Cell proliferation inhibitory activity assay, Ba/F3 EGFR Del19/T790M/C797S. It counts as cell-based. As to conditions: cell proliferation inhibition, 72 hours, luminescence; read-out: Ba/F3 cells overexpressing different EGFR mutations IC50 (nM) Del19/T790M/C797S. How it is done: (§1) Suspension cells Ba/F3 (EGFR. Dell9/T790M/C797S), Ba/F3 (EGFR L858R/T790M/C797S), Ba/F3 (EGFR Del19/C797S), and Ba/F3 (EGFR L858R/C797S) overexpressing different EGFR mutations were cultured in PRMI 1640 containing 10% FBS and 1% PS, and adherent cells A431 carrying EGFR WT were cultured in DMEM containing 10% FBS and 1% PS. The experimental steps for compound activity detection are as follows: • (1) Take adherent cells in the logarithmic growth phase, digest them with trypsin count them, and then inoculate them into a 96-well plate at a certain density. Incubate them overnight at 37° C. and 5% CO2 to allow them to adhere.
(§2) Y=minimum+([…])/(1+10^((Log IC50−X)*slope)); • X: logarithm of compound concentration; Y: cell survival inhibition rate.

The target in series [2] is Ba/F3 (EGFR L858R/T790M/C797S) (Homo sapiens, UniProt P00533, T790M/C797S/L858R, cells depend on it). Briefly: Cell proliferation inhibitory activity assay, Ba/F3 EGFR L858R/T790M/C797S. The series is classed as cell-based. Conditions: cell proliferation inhibition, 72 hours, luminescence; read-out: Ba/F3 cells overexpressing different EGFR mutations IC50 (nM) L858R/T790M/C797S. The procedure:
as §1, §2

In series [3] the target is Ba/F3 (EGFR Del19/C797S) (Homo sapiens, UniProt P00533, C797S, cells depend on it, form not given). Briefly: Cell proliferation inhibitory activity assay, Ba/F3 EGFR Del19/C797S. The series is classed as cell-based. Conditions: cell proliferation inhibition, 72 hours, luminescence; read-out: Ba/F3 cells overexpressing different EGFR mutations IC50 (nM) Del19/C797S. The procedure:
as §1, §2

The target of series [4] is Ba/F3 (EGFR L858R/C797S) (Homo sapiens, UniProt P00533, C797S/L858R, cells depend on it). Briefly: Cell proliferation inhibitory activity assay, Ba/F3 EGFR L858R/C797S. The series is classed as cell-based. As to conditions: cell proliferation inhibition, 72 hours, luminescence; read-out: Ba/F3 cells overexpressing different EGFR mutations IC50 (nM) L858R/C797S. The procedure:
as §1, §2

Series [5] relates to A431 cell carrying EGFR WT. Briefly: Cell proliferation inhibitory activity assay, A431. The series is classed as cell-based. Conditions: cell proliferation inhibition, 72 hours, luminescence. The procedure: as §1, §2
Series [6] is described as follows: Metabolic stability of liver microsomes, human. The series is classed as in vitro ADME. Conditions: NADPH, 0-45 min; for microsomal CLint: read-out: CLint(μL/min/mg protein) Human. How it is done: (§3) The liver microsomes of human, rat, mouse and dog were used to study the metabolic stability of the compounds. The specific experimental steps are as follows: • (1) Add 40 μL MgCl2 and 306 μL PBS to each well of a 96-well plate, and then add 4 μL compound, with a final DMSO concentration of ≤0.5%. Set up a blank well without compound; • (2) Add 10 μL of 20 mg/mL liver microsomes to each well, incubate at 37° C. for 10 min; • (3) Add 40 μL NADPH working solution to each well to start the reaction, and set up a control well without NADPH; • (4) At 0, 5, 15, and 45 min after the start of the reaction, 50 μL of sample was taken out, the termination solution was added, and the mixture was shaken for 5 min. • (5) The samples were then centrifuged at 3,220 g for 10 min, and 50 μL of the supernatant was removed and was added 200 μL water for dilution and analysis by LC-MS/MS.
(§4) The in vitro intrinsic clearance (in vitro CLint, in μL/min/mg) was calculated from the in vitro half-life t1/2 (minutes) using the following equation (mean of replicates):
(§5) In vitro clearance rate=0.693/in vitro half-life t1/2×[incubation volume (μL)/(protein amount (mg)]
On the technique in general: Liver microsomes are vesicles of endoplasmic reticulum, rich in cytochrome P450 enzymes.

The nature of series [7]: Metabolic stability of liver microsomes, rat. The series is classed as in vitro ADME. As to conditions: NADPH, 0-45 min; for microsomal CLint: read-out: CLint(μL/min/mg protein) Rat. The procedure: as §3, §4, §5
Series [8] is described as follows: Metabolic stability of liver microsomes, mouse. Conditions: NADPH, 0-45 min; for microsomal CLint: read-out: CLint(μL/min/mg protein) Mouse. It counts as in vitro ADME. How it is done:
as §3, §4, §5

Series [9] in a line: Pharmacokinetics in mice. It counts as in vivo, mouse. As to conditions: female BALB/c mice, 5 mg/kg orally by gavage, plasma. How it is done: Mouse PK studies were performed using female BALB/c mice (20-30 g). Compounds were prepared and prepared immediately before use. Mice were administered intravenously or orally by gavage. Blood was collected from the mouse orbital venous plexus, and 100 μL of whole blood was transferred to a K2-EDTA tube at each time point.
1 mg/kg was given intravenously, and whole blood was collected at 0.083, 0.25, 0.5, 1, 2, 4, 6 and 24 h after administration; 5 mg/kg were given orally by gavage, and whole blood was collected at 0.25, 0.5, 1, 2, 4, 6, 24 h after administration in different batches, or the mice were killed at 2, 4 and 6 h to obtain brains. Whole blood samples were centrifuged and plasma was separated; brain tissue samples were homogenized by adding 4 times the volume of buffer, and the plasma and brain tissue samples were stored in a −80° C. refrigerator for later use. After the above plasma and brain tissue samples were precipitated with acetonitrile for protein, the supernatant was taken and mixed with water in a 1:1 ratio, and 10 μL was taken for LC-MS/MS detection.

The nature of series [10]: Pharmacokinetics in rats. It counts as in vivo, rat. As to conditions: male SD rats, 5 mg/kg orally by gavage, plasma. How it is done:
Male SD rats (200-300 g) were used for rat PK studies. Compounds were prepared and prepared immediately before use. Rats were administered intravenously or orally by gavage. Blood was collected from the rats through the orbital venous plexus, and 100 μL whole blood was collected into K2-EDTA tubes at each time point.
1 mg/kg was given intravenously, and whole blood was collected at 0.083, 0,25, $0.5, 1, 2, 4, 7, 24, 48, and 72 h after administration; 5 mg/kg were given orally by gavage, and whole blood was collected at 0.25, 0.5, 1, 2, 4, 7, 24, 48, and 72 h after administration in different batches, or the rats were killed at 4 and 24 h to obtain brains. The brain tissue samples were homogenized by adding 4 times the volume of buffer, and the whole blood and brain tissue samples were stored in a −80° C. refrigerator for later use. After the above whole blood and brain tissue samples were precipitated with acetonitrile for protein, the supernatant was taken and mixed with water in a ratio of 1:2, and 10 μL was taken for LC-MS/MS detection.

Series [11] can be described thus: Metabolic stability of liver microsomes, dog. The series is classed as in vitro ADME. Conditions: NADPH, 0-45 min, read-out: CLint(μL/min/mg protein) Dog. How it is done:
as §3, §4, §5

Usually IC50 stands for the concentration that inhibits the measured activity by half. Low values mean higher potency, high ones lower potency. Take “5^6-(9-(3- methoxy- propyl)-3,9- diazaspiro[5.5] undecan-3-yl)- 2^6-methyl-5^1H- 11-oxa-4-aza- 5(2,1)-benzo[d] imidazola- 1(34),2(2,4)- dipyridinacyclo- undecaphan- 3-one [Example 76]”: the GI50 in series [1] amounted to 0.14 nM; in [2], 0.2 nM; in series [3] it was 0.09 nM; in series [4] it was 0.34 nM. For the same molecule, in series [5], half-maximal inhibition (IC50) required 586 nM. Also, in [6], the “CLint(μL/min/mg protein) Human” value amounted to 8 μL/min/mg protein. Further, in [7], the “CLint(μL/min/mg protein) Rat” value is 15.6 μL/min/mg protein. The “CLint(μL/min/mg protein) Mouse” value in series [8] was 23 μL/min/mg protein.

One may read the AUC(0-t) as the area under the concentration-time curve up to a stated or last time point. Higher therefore signals high exposure. The term half-life denotes how long it takes for the measured level to halve. High values mean slow decline, low ones rapid decline. One may read the Cmax as the maximum level reached in the sampled fluid or tissue. `Cc1cc2cc(n1)-c1cnccc1OCCCCCn1c(nc3ccc(N4CCC5(CC4)CCN(C4COC4)CC5)cc31)NC2=O` [Example 52, 2^6-methyl-5^6-(9-(oxetan-3-yl)-3,9-diazaspiro [5.5]undecan-3-yl)-5^1H-11-oxa-4-aza-5(2,1)-benzo[d] imidazola-1(3,4),2(2,4)-dipyridinacyclo-undecaphan-3-one]: the GI50 was 0.8 nM in series [1], 1.6 nM in series [2], 0.5 nM in [3] and 4.7 nM in [4]. In series [5] (Homo sapiens, A-431), this molecule displayed an IC50 of 700 nM. For the same molecule, the AUC(0-t) in [9] (mouse, po) turned out to be 3.46 µg·h/mL; in [10] (rat, po), 0.917 µg·h/mL. Further, the half-life in series [9] (mouse, po) was 20.1 h; in series [10] (rat, po), 12.4 h. The Cmax stood at 0.215 µg/mL in series [9] (mouse, po, read-out: Cmax) and 0.0575 µg/mL in series [10] (rat, po, read-out: Cmax).

Consider `COCCCN1CCC2(CC1)CCN(c1ccc3nc4n(c3c1)C[C@H](C)CCCOc1ccncc1-c1cc(cc(C)n1)C(=O)N4)CC2` [Example 77, (R)-5^6-(9-(3-methoxypropyl)-3,9-diazaspiro [5.5]undecan-3-yl)-2^6,7-dimethyl-5^1H-11-oxa-4-aza-5(2,1)-benzo [d]imidazola-1(3,4),2(2,4)-dipyridinacyclo-undecaphan-3-one], for which the GI50 worked out at 0.36 nM in series [1], 0.36 nM in [2], 0.23 nM in series [3] and 0.18 nM in series [4]. The IC50 in [5] (Homo sapiens, A-431) was determined as 426 nM. The microsomal CLint amounted to 17 µL/min/mg in series [6], 6.7 µL/min/mg in [7] and 25.1 µL/min/mg in series [8].

`Cc1cc2cc(n1)-c1cnccc1OCCC[C@@H](C)Cn1c(nc3cc(F)c(N4CCC5(CC4)CCN(C4COC4)CC5)cc31)NC2=O` [Example 6, (R)-5^5-fluoro-2^6,7-dimethyl-5^6-(9-(oxetan-3-yl)-3,9-diazaspiro[5.5]undecan-3-yl)-5^1H-11-oxa-4-aza-3(2.1)-benzo[d]imidazola-1(3,4),2(2,4)-dipyridinacycloundecaphan-3-one]: the GI50 in [1] worked out at 2.1 nM; in series [2] it was 4.1 nM; in series [3], 0.38 nM; in series [4], 2.1 nM. The same molecule gave an IC50 in series [5] (Homo sapiens, A-431) of 403 nM. The AUC(0-t) came to 1.14 µg·h/mL in series [9] (mouse, po) and 1.7 µg·h/mL in series [10] (rat, po). Further, the half-life was 21.5 h in series [9] (mouse, po) and 17.2 h in [10] (rat, po). Moreover, the Cmax in series [9] (mouse, po, read-out: Cmax) was 0.0924 µg/mL; in series [10] (rat, po, read-out: Cmax), 0.106 µg/mL. The microsomal CLint was determined as 41.5 µL/min/mg in series [6], 2.9 µL/min/mg in [7] and 20.6 µL/min/mg in [11].

For the molecule `Cc1cc2cc(n1)-c1cnccc1OCCCCCn1c(nc3cc(C)c(N4CCC5(CCN(CCF)CC5)CC4)cc31)NC2=O` [Example 59, 5^6-(9-(2-fluoroethyl)-3,9-diazaspiro[5.5]undecan-3-yl)-2^6,5^5-dimethyl-5^1H-11-oxa-4-aza-5(2,1)-benzo [d]imidazola-1(3,4),2(2,4)-dipyridinacyclo-undecaphan-3-one], the GI50 in series [1] is 2.4 nM; in series [2], 3.7 nM; in series [3], 0.45 nM; in [4], 5.7 nM. Further, the microsomal CLint is 4.82 µL/min/mg in [6], 23.3 µL/min/mg in series [7] and 8.93 µL/min/mg in series [8].

Consider `Cc1cc2cc(n1)-c1cnn(C)c1OCCC[C@@H](C)CN1/C(=N/C2=O)Nc2ccc(CN3CCN(C)CC3)cc21` [compound 1, reference compound], for which the AUC(0-t) in series [9] (mouse, po) was determined as 0.361 µg·h/mL; in series [10] (rat, po), 0.096 µg·h/mL. For the same molecule, the half-life in [9] (mouse, po) is 4.22 h; in series [10] (rat, po), 2.94 h. Also, the Cmax worked out at 0.0328 µg/mL in series [9] (mouse, po, read-out: Cmax) and 0.0105 µg/mL in [10] (rat, po, read-out: Cmax).

As to “5^6-(9-((2R,6S)-2,6- dimethyl- tetrahydro-2H- pyran-4-yl)-3,9- diazaspiro[5.5] undecan-3-yl)- 2^6-methyl-5^1H- 11-oxa-4-aza- 5(2,1)-benzo [d]imidazola- 1(3,4),2(2,4)- dipyridinacyclo- undecaphan- 3-one [Example 91]”, the GI50 stood at 1.7 nM in [1], 3.4 nM in series [2], 0.64 nM in [3] and 5.2 nM in series [4]. In addition, the IC50 in series [5] stood at 759 nM. The results for the “AUClast” value in series [9] and in [10] were 1.495 µg·h/mL and 1.611 µg·h/mL, respectively. In addition, the “Cmax” value amounted to 0.0419 µg/mL in series [9] and 0.0425 µg/mL in [10]. The “T1/2” value in series [10] is on record as 26.4 h.
